From PubChem BioAssay AID328 (DTP/NCI, 2004)
“And” between values parts separate entries of the source, which are not always exact repeats. Equal entries are not always repeated. Inconclusive results and toxic doses are left out.

Tested on: BDF1 mice, P388 leukemia ip, median survival T/C
Test: NCI In Vivo Anticancer Drug Screen. Data for tumor model P388 Leukemia (intraperitoneal) in B6D2F1 (BDF1) mice
Settings: endpoint: median survival time, higher = longer survival
Summary of the method: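 Compound-treated tumour-bearing mice were compared with vehicle-treated controls. Survival was recorded, and the value is the treated-group measurement divided by the control-group measurement (T/C).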

[1] = dose: 50.0 mg/kg/injection, schedule: Q01DX009 (ip), vehicle: gum acacia
[2] = dose: 100.0 mg/kg/injection, schedule: Q01DX009 (ip), vehicle: gum acacia
[3] = dose: 100.0 mg/kg/injection, schedule: Q04DX003 (ip), vehicle: gum acacia
[4] = dose: 100.0 mg/kg/injection, schedule: Q04DX003 (ip), vehicle: saline
[5] = dose: 400.0 mg/kg/injection, schedule: Q04DX003 (ip), vehicle: saline
[6] = dose: 100.0 mg/kg/injection, schedule: Q01DX009 (ip), vehicle: saline with Tween-80
[7] = dose: 12.5 mg/kg/injection, schedule: Q01DX009 (ip), vehicle: saline with Tween-80
[8] = dose: 50.0 mg/kg/injection, schedule: Q01DX009 (ip), vehicle: saline with Tween-80

O=NN(CCBr)C(=O)NCCBr
T/C (dose: 30.0 mg/kg/injection, schedule: Q01DX009 (ip), vehicle: gum acacia): 158 % of control | T/C (dose: 44.0 mg/kg/injection, schedule: Q01DX009 (ip), vehicle: gum acacia): 158 % of control | T/C [1]: 196 % of control | T/C (dose: 67.0 mg/kg/injection, schedule: Q01DX009 (ip), vehicle: gum acacia): 169 % of control and 191 % of control | T/C (dose: 67.0 mg/kg/injection, schedule: Q04DX003 (ip), vehicle: gum acacia): 165 % of control | T/C (dose: 100.0 mg/kg/injection, schedule: Q01DX009 (ip), vehicle: Klucel (hydroxypropylcellulose) (HPC)): 112 % of control | T/C [2]: 192 % of control and 200 % of control | T/C [3]: 173 % of control | T/C [4]: 118 % of control | T/C (dose: 150.0 mg/kg/injection, schedule: Q01DX009 (ip), vehicle: gum acacia): 226 % of control | T/C (dose: 150.0 mg/kg/injection, schedule: Q04DX003 (ip), vehicle: gum acacia): 230 % of control | T/C (dose: 200.0 mg/kg/injection, schedule: Q01DX009 (ip), vehicle: Klucel (hydroxypropylcellulose) (HPC)): 154 % of control | T/C (dose: 400.0 mg/kg/injection, schedule: Q01DX009 (ip), vehicle: Klucel (hydroxypropylcellulose) (HPC)): 170 % of control | T/C [5]: 190 % of control

COc1cc(/C=N/N2CCCCC2)cc(OC)c1OC
T/C [6]: 100 % of control | T/C (dose: 100.0 mg/kg/injection, schedule: Q04DX003 (ip), vehicle: saline with Tween-80): 100 % of control | T/C (dose: 200.0 mg/kg/injection, schedule: Q01DX009 (ip), vehicle: saline with Tween-80): 90 % of control | T/C (dose: 200.0 mg/kg/injection, schedule: Q04DX003 (ip), vehicle: saline with Tween-80): 100 % of control | T/C (dose: 400.0 mg/kg/injection, schedule: Q01DX009 (ip), vehicle: saline with Tween-80): 100 % of control | T/C (dose: 400.0 mg/kg/injection, schedule: Q04DX003 (ip), vehicle: saline with Tween-80): 90 % of control

CNCc1cccs1
T/C [4]: 106 % of control | T/C (dose: 200.0 mg/kg/injection, schedule: Q04DX003 (ip), vehicle: saline): 117 % of control | T/C [5]: 100 % of control

CC(C)(C)OC(=O)N/N=C1\CC2CCC1C2 (stereo not given)
T/C (dose: 6.25 mg/kg/injection, schedule: Q01DX009 (ip), vehicle: saline with Tween-80): 96 % of control | T/C [7]: 96 % of control | T/C (dose: 13.75 mg/kg/injection, schedule: Q04DX003 (ip), vehicle: Klucel (hydroxypropylcellulose) (HPC)): 95 % of control | T/C (dose: 25.0 mg/kg/injection, schedule: Q01DX009 (ip), vehicle: saline with Tween-80): 100 % of control | T/C (dose: 27.5 mg/kg/injection, schedule: Q04DX003 (ip), vehicle: Klucel (hydroxypropylcellulose) (HPC)): 100 % of control | T/C (dose: 35.0 mg/kg/injection, schedule: Q01DX009 (ip), vehicle: Klucel (hydroxypropylcellulose) (HPC)): 105 % of control | T/C (dose: 55.0 mg/kg/injection, schedule: Q01DX009 (ip), vehicle: Klucel (hydroxypropylcellulose) (HPC)): 100 % of control | T/C (dose: 55.0 mg/kg/injection, schedule: Q04DX003 (ip), vehicle: Klucel (hydroxypropylcellulose) (HPC)): 100 % of control | T/C (dose: 80.0 mg/kg/injection, schedule: Q04DX003 (ip), vehicle: Klucel (hydroxypropylcellulose) (HPC)): 105 % of control | T/C (dose: 125.0 mg/kg/injection, schedule: Q04DX003 (ip), vehicle: Klucel (hydroxypropylcellulose) (HPC)): 110 % of control

CCOC(=O)/C=C\CBr
T/C (dose: 1.5 mg/kg/injection, schedule: Q01DX010 (ip), vehicle: saline): 100 % of control | T/C (dose: 3.0 mg/kg/injection, schedule: Q01DX010 (ip), vehicle: saline): 100 % of control | T/C (dose: 6.0 mg/kg/injection, schedule: Q01DX010 (ip), vehicle: saline): 105 % of control | T/C (dose: 12.0 mg/kg/injection, schedule: Q01DX010 (ip), vehicle: saline): 100 % of control and 115 % of control | T/C (dose: 24.0 mg/kg/injection, schedule: Q01DX010 (ip), vehicle: saline): 100 % of control | T/C (dose: 48.0 mg/kg/injection, schedule: Q01DX010 (ip), vehicle: saline): 120 % of control

CCCCN(CCCC)CCC(O)c1cc(-c2ccc(Cl)c(Cl)c2)nc2c(Cl)cc(Cl)cc12 (stereo not given)
T/C [8]: 99 % of control | T/C [6]: 110 % of control

C(=Nc1ccc2c(c1)Cc1ccccc1-2)c1ccc2ccccc2c1
T/C (dose: 12.5 mg/kg/injection, schedule: Q04DX002 (ip), vehicle: saline with Tween-80): 103 % of control | T/C (dose: 25.0 mg/kg/injection, schedule: Q04DX002 (ip), vehicle: saline with Tween-80): 94 % of control | T/C (dose: 50.0 mg/kg/injection, schedule: Q04DX002 (ip), vehicle: saline with Tween-80): 97 % of control

Cc1ccccc1N=P(c1ccccc1)(c1ccccc1)c1ccccc1
T/C [1]: 88 % of control | T/C [2]: 88 % of control | T/C [3]: 96 % of control | T/C (dose: 200.0 mg/kg/injection, schedule: Q04DX003 (ip), vehicle: gum acacia): 96 % of control

NNCc1c(C(=O)O)oc2ccccc12
T/C [8]: 99 % of control | T/C [6]: 100 % of control

Cc1ccc(-c2nc3sccn3c2/C=N/NS(=O)(=O)c2ccc(C)cc2)cc1
T/C (dose: 100.0 mg/kg/injection, schedule: Q01DX001 (ip), vehicle: Klucel (hydroxypropylcellulose) (HPC)): 101 % of control | T/C (dose: 200.0 mg/kg/injection, schedule: Q01DX001 (ip), vehicle: Klucel (hydroxypropylcellulose) (HPC)): 101 % of control | T/C (dose: 400.0 mg/kg/injection, schedule: Q01DX001 (ip), vehicle: Klucel (hydroxypropylcellulose) (HPC)): 101 % of control

C1CCCC(NC2=NCCO2)CCC1
T/C (dose: 6.25 mg/kg/injection, schedule: Q04DX003 (ip), vehicle: saline with Tween-80): 100 % of control | T/C (dose: 12.5 mg/kg/injection, schedule: Q04DX003 (ip), vehicle: saline with Tween-80): 109 % of control | T/C (dose: 25.0 mg/kg/injection, schedule: Q04DX003 (ip), vehicle: saline with Tween-80): 95 % of control

CC(=O)OC(C)(C)/C=C/C(=O)[C@](C)(O)[C@H]1[C@H](O)C[C@@]2(C)[C@@H]3CC=C4[C@@H](C[C@H](O)C(=O)C4(C)C)[C@]3(C)C(=O)C[C@]12C
T/C (dose: 0.07 mg/kg/injection, schedule: Q01DX009 (ip), vehicle: saline): 95 % of control | T/C (dose: 0.09 mg/kg/injection, schedule: Q04DX003 (ip), vehicle: saline): 100 % of control | T/C (dose: 0.12 mg/kg/injection, schedule: Q01DX009 (ip), vehicle: saline): 115 % of control | T/C (dose: 0.18 mg/kg/injection, schedule: Q01DX009 (ip), vehicle: saline): 105 % of control | T/C (dose: 0.18 mg/kg/injection, schedule: Q01DX010 (ip), vehicle: carboxymethylcellulose (CMC)): 120 % of control | T/C (dose: 0.18 mg/kg/injection, schedule: Q04DX003 (ip), vehicle: saline): 104 % of control | T/C (dose: 0.25 mg/kg/injection, schedule: Q01DX010 (ip), vehicle: carboxymethylcellulose (CMC)): 113 % of control | T/C (dose: 0.37 mg/kg/injection, schedule: Q01DX010 (ip), vehicle: carboxymethylcellulose (CMC)): 100 % of control | T/C (dose: 0.5 mg/kg/injection, schedule: Q01DX010 (ip), vehicle: carboxymethylcellulose (CMC)): 118 % of control | T/C (dose: 0.75 mg/kg/injection, schedule: Q01DX010 (ip), vehicle: carboxymethylcellulose (CMC)): 115 % of control | T/C (dose: 1.5 mg/kg/injection, schedule: Q01DX010 (ip), vehicle: carboxymethylcellulose (CMC)): 115 % of control | T/C (dose: 132.0 micrograms/kg/injection, schedule: Q01DX009 (ip), vehicle: saline): 112 % of control | T/C (dose: 198.0 micrograms/kg/injection, schedule: Q01DX009 (ip), vehicle: saline): 104 % of control

CC1OC(OC2CCCc3ccccc32)CC(N)C1O (stereo not given)
T/C (dose: 0.25 mg/kg/injection, schedule: Q01DX009 (ip), vehicle: water): 91 % of control and 94 % of control | T/C (dose: 0.5 mg/kg/injection, schedule: Q01DX009 (ip), vehicle: water): 101 % of control and 115 % of control and 103 % of control | T/C (dose: 1.0 mg/kg/injection, schedule: Q01DX009 (ip), vehicle: water): 110 % of control [middle of 4 runs] | T/C (dose: 2.0 mg/kg/injection, schedule: Q01DX009 (ip), vehicle: water): 101 % of control and 102 % of control and 105 % of control | T/C (dose: 4.0 mg/kg/injection, schedule: Q01DX009 (ip), vehicle: water): 109 % of control [middle of 5 runs] | T/C (dose: 8.0 mg/kg/injection, schedule: Q01DX009 (ip), vehicle: water): 106 % of control and 111 % of control | T/C (dose: 16.0 mg/kg/injection, schedule: Q01DX009 (ip), vehicle: water): 98 % of control and 108 % of control | T/C (dose: 32.0 mg/kg/injection, schedule: Q01DX009 (ip), vehicle: water): 121 % of control

O=C(Nc1cccc(C(F)(F)F)c1)C12CC3CC(CC(C3)C1)C2
T/C [7]: 92 % of control | T/C [8]: 87 % of control | T/C [6]: 90 % of control
